Values quoted from earlier work, collected in patent publication US20020165594A1, “Apparatus and method of photodynamic eradication of organisms utilizing pyrrolnitrin” (Merrill A. Biel, priority 2001, published 2002).

Details: orally and intravenously in high doses

For `CN(C)c1ccc2nc3ccc(=[N+](C)C)cc-3sc2c1` [Methylene blue], the “toxic effects on administration to humans” value is listed as “without any toxic effects”.
